“And” between values parts separate entries of the source, which are not always exact repeats. Equal entries are not always repeated. Inconclusive results and toxic doses are left out.
System: BDF1 mice, P388 leukemia ip, median survival T/C
Assay: NCI In Vivo Anticancer Drug Screen. Data for tumor model P388 Leukemia (intraperitoneal) in B6D2F1 (BDF1) mice
Conditions: endpoint: median survival time, higher = longer survival
Procedure, shortened: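 T/C = treated-group survival ÷ vehicle-control survival; tumour transplanted into mice before dosing.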

[1] = dose: 50.0 mg/kg/injection, schedule: Q01DX009 (ip), vehicle: Klucel (hydroxypropylcellulose) (HPC)
[2] = dose: 100.0 mg/kg/injection, schedule: Q01DX009 (ip), vehicle: Klucel (hydroxypropylcellulose) (HPC)
[3] = dose: 200.0 mg/kg/injection, schedule: Q01DX009 (ip), vehicle: Klucel (hydroxypropylcellulose) (HPC)
[4] = dose: 100.0 mg/kg/injection, schedule: Q01DX009 (ip), vehicle: saline with Tween-80
[5] = dose: 100.0 mg/kg/injection, schedule: Q04DX003 (ip), vehicle: saline with Tween-80
[6] = dose: 200.0 mg/kg/injection, schedule: Q01DX009 (ip), vehicle: saline with Tween-80
[7] = dose: 200.0 mg/kg/injection, schedule: Q04DX003 (ip), vehicle: saline with Tween-80
[8] = dose: 400.0 mg/kg/injection, schedule: Q01DX009 (ip), vehicle: saline with Tween-80
[9] = dose: 400.0 mg/kg/injection, schedule: Q04DX003 (ip), vehicle: saline with Tween-80
[10] = dose: 50.0 mg/kg/injection, schedule: Q01DX009 (ip), vehicle: saline with Tween-80
[11] = dose: 50.0 mg/kg/injection, schedule: Q01DX009 (ip), vehicle: saline
[12] = dose: 100.0 mg/kg/injection, schedule: Q01DX009 (ip), vehicle: saline
[13] = dose: 6.25 mg/kg/injection, schedule: Q01DX009 (ip), vehicle: saline
[14] = dose: 12.5 mg/kg/injection, schedule: Q01DX009 (ip), vehicle: saline
[15] = dose: 25.0 mg/kg/injection, schedule: Q01DX009 (ip), vehicle: saline
[16] = dose: 100.0 mg/kg/injection, schedule: Q04DX003 (ip), vehicle: saline sonified
[17] = dose: 200.0 mg/kg/injection, schedule: Q04DX003 (ip), vehicle: Klucel (hydroxypropylcellulose) (HPC)
[18] = dose: 200.0 mg/kg/injection, schedule: Q04DX003 (ip), vehicle: saline sonified

CC(=O)/C=C\c1ccc(Cl)cc1
T/C [1]: 100 % of control | T/C [2]: 111 % of control | T/C [3]: 109 % of control | T/C (dose: 400.0 mg/kg/injection, schedule: Q01DX009 (ip), vehicle: Klucel (hydroxypropylcellulose) (HPC)): 111 % of control

O=S(=O)(F)c1cccc(C[P+](c2ccccc2)(c2ccccc2)c2ccccc2)c1
T/C (dose: 5.5 mg/kg/injection, schedule: Q01DX009 (ip), vehicle: Klucel (hydroxypropylcellulose) (HPC)): 118 % of control | T/C (dose: 70.0 mg/kg/injection, schedule: Q04DX003 (ip), vehicle: Klucel (hydroxypropylcellulose) (HPC)): 118 % of control and 120 % of control | T/C (dose: 73.0 mg/kg/injection, schedule: Q04DX003 (ip), vehicle: Klucel (hydroxypropylcellulose) (HPC)): 118 % of control | T/C (dose: 170.0 mg/kg/injection, schedule: Q04DX003 (ip), vehicle: Klucel (hydroxypropylcellulose) (HPC)): 95 % of control | T/C (dose: 255.0 mg/kg/injection, schedule: Q04DX003 (ip), vehicle: Klucel (hydroxypropylcellulose) (HPC)): 108 % of control and 120 % of control

CC(C)n1c(=O)c2ccccc2[s+]1-c1ccccc1 (centres undefined)
T/C (dose: 100.0 mg/kg/injection, schedule: Q01DX001 (ip), vehicle: saline with Tween-80): 95 % of control | T/C (dose: 200.0 mg/kg/injection, schedule: Q01DX001 (ip), vehicle: saline with Tween-80): 95 % of control | T/C (dose: 400.0 mg/kg/injection, schedule: Q01DX001 (ip), vehicle: saline with Tween-80): 92 % of control

CC(O)(/C=C\c1ccccc1)c1ccccc1 (centres undefined)
T/C [4]: 105 % of control | T/C [5]: 95 % of control | T/C [6]: 107 % of control | T/C [7]: 104 % of control | T/C [8]: 105 % of control | T/C [9]: 104 % of control

C=C(C)C(=O)O[C@@H]1C[C@@]2(C)O[C@@H]2C[C@H](O)/C(C)=C/[C@H]2OC(=O)C(=C)[C@@H]21
T/C (dose: 6.0 mg/kg/injection, schedule: Q01DX009 (ip), vehicle: saline + alcohol): 113 % of control | T/C (dose: 12.0 mg/kg/injection, schedule: Q01DX009 (ip), vehicle: saline + alcohol): 109 % of control | T/C (dose: 48.0 mg/kg/injection, schedule: Q01DX009 (ip), vehicle: saline + alcohol): 113 % of control

COC(=O)CCC(=O)CCC(C)C
T/C (dose: 25.0 mg/kg/injection, schedule: Q01DX009 (ip), vehicle: saline with Tween-80): 107 % of control | T/C [10]: 103 % of control | T/C [4]: 92 % of control | T/C [5]: 111 % of control | T/C [6]: 103 % of control | T/C [7]: 122 % of control | T/C [8]: 92 % of control | T/C [9]: 116 % of control

c1ccc2c(c1)ccc1cc3cc(NCCCCNc4ccc5nc6c(ccc7ccccc76)cc5c4)ccc3nc12
T/C (dose: 1.56 mg/kg/injection, schedule: Q01DX009 (ip), vehicle: saline with Tween-80): 108 % of control | T/C (dose: 3.13 mg/kg/injection, schedule: Q01DX009 (ip), vehicle: saline with Tween-80): 105 % of control | T/C (dose: 6.25 mg/kg/injection, schedule: Q01DX009 (ip), vehicle: saline with Tween-80): 108 % of control

CC(C)(N)CNC(C)(C)CO
T/C [11]: 95 % of control | T/C [12]: 111 % of control | T/C (dose: 200.0 mg/kg/injection, schedule: Q01DX009 (ip), vehicle: saline): 92 % of control

O=C(O)c1sc(C(=O)O)c(-c2ccccc2)c1-c1ccccc1
T/C [13]: 89 % of control and 101 % of control | T/C [14]: 101 % of control and 115 % of control | T/C [15]: 87 % of control and 95 % of control | T/C [10]: 100 % of control | T/C [11]: 89 % of control and 100 % of control | T/C [4]: 100 % of control | T/C [5]: 90 % of control | T/C [6]: 100 % of control | T/C [7]: 95 % of control | T/C [9]: 104 % of control

CN1N=Nc2cccc3cccc1c23
T/C [15]: 105 % of control | T/C [11]: 100 % of control | T/C [12]: 105 % of control

O=C1N(Br)C(=O)C(c2ccc(Cl)cc2)(c2ccc(Cl)cc2)N1Br
T/C (dose: 12.5 mg/kg/injection, schedule: Q01DX009 (ip), vehicle: saline with Tween-80): 113 % of control | T/C (dose: 45.0 mg/kg/injection, schedule: Q04DX003 (ip), vehicle: Klucel (hydroxypropylcellulose) (HPC)): 90 % of control | T/C [10]: 172 % of control | T/C (dose: 65.0 mg/kg/injection, schedule: Q04DX003 (ip), vehicle: Klucel (hydroxypropylcellulose) (HPC)): 95 % of control | T/C (dose: 100.0 mg/kg/injection, schedule: Q04DX003 (ip), vehicle: alcohol): 150 % of control | T/C [16]: 115 % of control | T/C (dose: 130.0 mg/kg/injection, schedule: Q01DX009 (ip), vehicle: Klucel (hydroxypropylcellulose) (HPC)): 156 % of control | T/C (dose: 132.0 mg/kg/injection, schedule: Q01DX009 (ip), vehicle: Klucel (hydroxypropylcellulose) (HPC)): 95 % of control | T/C (dose: 132.0 mg/kg/injection, schedule: Q04DX003 (ip), vehicle: Klucel (hydroxypropylcellulose) (HPC)): 177 % of control | T/C (dose: 132.0 mg/kg/injection, schedule: Q04DX003 (ip), vehicle: saline): 165 % of control | T/C (dose: 200.0 mg/kg/injection, schedule: Q01DX003 (ip), vehicle: Klucel (hydroxypropylcellulose) (HPC)): 154 % of control | T/C [3]: 175 % of control | T/C [17]: 154 % of control | T/C (dose: 200.0 mg/kg/injection, schedule: Q04DX003 (ip), vehicle: alcohol): 185 % of control | T/C [18]: 160 % of control | T/C (dose: 300.0 mg/kg/injection, schedule: Q04DX003 (ip), vehicle: saline): 150 % of control | T/C (dose: 400.0 mg/kg/injection, schedule: Q04DX003 (ip), vehicle: alcohol): 150 % of control

CCCCCCCCCCCC(O)CCCCC (centres undefined)
T/C (dose: 100.0 mg/kg/injection, schedule: Q01DX009 (ip), vehicle: other): 120 % of control | T/C (dose: 200.0 mg/kg/injection, schedule: Q01DX009 (ip), vehicle: other): 115 % of control | T/C (dose: 400.0 mg/kg/injection, schedule: Q01DX009 (ip), vehicle: other): 115 % of control

O=C1CC(Cl)C(=O)N1c1ccccc1 (centres undefined)
T/C (dose: 75.0 mg/kg/injection, schedule: Q04DX003 (ip), vehicle: saline with Tween-80): 108 % of control | T/C (dose: 150.0 mg/kg/injection, schedule: Q04DX003 (ip), vehicle: saline with Tween-80): 104 % of control | T/C (dose: 300.0 mg/kg/injection, schedule: Q04DX003 (ip), vehicle: saline with Tween-80): 104 % of control

CC1(C)COC(C)(C)C(=O)O1
T/C (dose: 50.0 mg/kg/injection, schedule: Q04DX003 (ip), vehicle: Klucel (hydroxypropylcellulose) (HPC)): 95 % of control | T/C (dose: 100.0 mg/kg/injection, schedule: Q04DX003 (ip), vehicle: Klucel (hydroxypropylcellulose) (HPC)): 90 % of control | T/C [17]: 100 % of control

O=P(NC1CCCC1)(N1CC1)N1CC1
T/C (dose: 1.56 mg/kg/injection, schedule: Q01DX009 (ip), vehicle: saline): 116 % of control | T/C [13]: 187 % of control and 220 % of control | T/C [14]: 91 % of control and 104 % of control

COc1cc([C@@H]2c3cc4c(cc3[C@H](OC(C)=O)[C@H]3COC(=O)[C@@H]23)OCO4)cc(OC)c1OC
T/C (dose: 25.0 mg/kg/injection, schedule: Q01DX010 (ip), vehicle: carboxymethylcellulose (CMC)): 123 % of control | T/C [10]: 172 % of control | T/C (dose: 50.0 mg/kg/injection, schedule: Q01DX010 (ip), vehicle: carboxymethylcellulose (CMC)): 95 % of control | T/C (dose: 50.0 mg/kg/injection, schedule: Q04DX003 (ip), vehicle: saline sonified): 100 % of control | T/C (dose: 66.0 mg/kg/injection, schedule: Q04DX003 (ip), vehicle: saline sonified): 88 % of control | T/C (dose: 88.0 mg/kg/injection, schedule: Q04DX003 (ip), vehicle: saline with Tween-80): 113 % of control | T/C [16]: 100 % of control | T/C (dose: 132.0 mg/kg/injection, schedule: Q04DX003 (ip), vehicle: saline with Tween-80): 150 % of control | T/C (dose: 150.0 mg/kg/injection, schedule: Q04DX003 (ip), vehicle: saline sonified): 100 % of control | T/C [18]: 170 % of control | T/C [7]: 160 % of control

Cc1cc(N(C)C)c(C=O)c(C)c1C=O
T/C (dose: 100.0 mg/kg/injection, schedule: Q04DX002 (ip), vehicle: saline with Tween-80): 113 % of control | T/C (dose: 200.0 mg/kg/injection, schedule: Q04DX002 (ip), vehicle: saline with Tween-80): 110 % of control | T/C (dose: 400.0 mg/kg/injection, schedule: Q04DX002 (ip), vehicle: saline with Tween-80): 87 % of control

COc1cc(N)c2ncsc2c1[N+](=O)[O-]
T/C [1]: 89 % of control | T/C [2]: 105 % of control | T/C [3]: 106 % of control

From PubChem BioAssay AID328 (DTP/NCI, 2004)
